Source: patent publication US6924302B2, “Substituted triazole diamine derivatives as kinase inhibitors” (Ortho McNeil Pharmaceutical, Inc., priority 2000, dated 2005)

Columns and labels:
Type in all cases: biochemical
[1] = molecular target: T1, CDK1:Cyclin-B (Homo sapiens, UniProt P06493); test: CDK1 Screening Assay; conditions: Table 1; read-out: CDK1 IC50
T1 construct: purchased New England Biolabs 6020; host or cells: insect cells
Description: (§1) 70 μL of the kinase reaction mixture was dispensed into the well of a streptavidin coated FlashPlate™ (Cat. # SMP103, NEN, Boston, Mass.). Then 1 μL of test compound stock in 100% DMSO was added to the wells resulting in a final concentration of 1% DMSO in the reaction with a 100 μl final reaction volume. Next, CDK1:Cyclin-B protein was diluted in 50 mM Tris-HCl pH=8.0, 0.1% BSA at a concentration of 1 ng per μL and 30 μl (30 ng enzyme per test well) was added to each well to initiate the reaction. The reaction was incubated for one hour at 30° C. At the end of the 1-hour incubation, the reaction was terminated by aspirating the reaction mixture from the plate and washing the wells twice with PBS containing 100 mM EDTA. The histone-H1 biotinylated peptide substrate became immobilized on the Flashplate™ and the incorporation of ^33P-γ-ATP was measured by reading the plate on a scintillation counter. Inhibition of the enzymatic activity of CDK1 was measured by observing a reduced amount of ^33P-γ-ATP incorporated into the immobilized peptide.
Assays to test compound inhibition of other kinases were preformed using methods that measure the amount of phosphorylation of a biotinylated peptide substrate. Biotinylated peptide substrates were selected from the literature as appropriate for the enzyme being evaluated. […] Assay conditions vary slightly for each protein kinase, for example, insulin receptor kinase requires 10 mM MnCl2 for activity and Calmodulin-dependent protein kinase requires calmodulin and 10 mM CaCl2. These assay conditions are known in the art. The reaction mixture was dispensed into the wells of a streptavidin coated Flashplate and 1 μl drug stock in 100% DMSO was added to a 100 μl reaction volume resulting in a final concentration of 1% DMSO on the reaction. Enzyme was diluted in 50 mM Tris-HCl pH=8.0, 0.1% BSA and add to each well. The reaction was incubated for one hour at 30° C. in the presence of compound. After one hour the reaction mix was aspirated from the plate and the plate was washed with PBS containing 100 mM EDTA. The plate was read on a scintillation counter to determine ^33P-γ-ATP incorporated into the immobilized peptide. Test compounds were assayed in duplicate at 8 concentrations [100 uM, 10 uM, 1 uM, 100 nM, 10 nM, 1 nM, 100 pM, 10 pM]. A maximum and minimum signal for the assay was determined on each plate. The IC50 was calculated from the dose response curve of the percent inhibition of the maximum signal in the assay according to the formula [max signal—background/test compound signal—background (100)=% inhibition] by graphing the percent inhibition against the log concentration of test compound. Known inhibitor compounds appropriate for the kinase being assayed were also included on each plate. […]

[2] = molecular target: T2, VEGF-R (vascular endothelial growth factor receptor-2) (Rattus norvegicus, UniProt O08775); test: VEGF-R Screening Assay; conditions: Table 1; read-out: VEGF-R IC50
T2 construct: polyhistidine (6xHIS) (N)
T2 sequence (O08775 786-1343): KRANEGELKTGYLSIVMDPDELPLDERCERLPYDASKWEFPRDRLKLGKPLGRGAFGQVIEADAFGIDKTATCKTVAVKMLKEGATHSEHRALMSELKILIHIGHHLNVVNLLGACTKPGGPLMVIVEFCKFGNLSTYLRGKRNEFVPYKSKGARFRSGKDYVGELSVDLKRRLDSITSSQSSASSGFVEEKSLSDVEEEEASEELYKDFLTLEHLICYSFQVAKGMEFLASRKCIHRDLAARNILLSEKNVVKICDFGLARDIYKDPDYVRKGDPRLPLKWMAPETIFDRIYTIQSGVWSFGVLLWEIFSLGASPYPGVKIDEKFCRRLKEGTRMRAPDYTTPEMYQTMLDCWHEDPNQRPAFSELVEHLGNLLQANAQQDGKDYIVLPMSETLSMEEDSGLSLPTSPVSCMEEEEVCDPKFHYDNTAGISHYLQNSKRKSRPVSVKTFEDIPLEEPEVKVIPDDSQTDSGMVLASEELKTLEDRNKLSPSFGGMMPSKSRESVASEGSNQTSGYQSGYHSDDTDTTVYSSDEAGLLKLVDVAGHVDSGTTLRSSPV
Description: as §1, with “a 100 μL final reaction” for “a 100 μl final reaction”, “volume. Next, soluble rat tyrosine kinase containing an N-terminal 6×HIS tag was diluted” for “volume. Next, CDK1:Cyclin-B protein was diluted”, “concentration of 5 ng per” for “concentration of 1 ng per”, “and 30 μL (150 ng enzyme” for “and 30 μl (30 ng enzyme”, “EDTA. The PLC1 biotinylated peptide” for “EDTA. The histone-H1 biotinylated peptide”, “activity of the VEGF-R was measured” for “activity of CDK1 was measured”
(§2) Assays to test compound inhibition of other kinases were preformed using methods that measure the amount of phosphorylation of a biotinylated peptide substrate. Biotinylated peptide substrates were selected from the literature as appropriate for the enzyme being evaluated. […] Assay conditions vary slightly for each protein kinase, for example, insulin receptor kinase requires 10 mM MnCl2 for activity and Calmodulin-dependent protein kinase requires calmodulin and 10 mM CaCl2. These assay conditions are known in the art. The reaction mixture was dispensed into the wells of a streptavidin coated Flashplate and 1 μl drug stock in 100% DMSO was added to a 100 μl reaction volume resulting in a final concentration of 1% DMSO on the reaction. Enzyme was diluted in 50 mM Tris-HCl pH=8.0, 0.1% BSA and add to each well. The reaction was incubated for one hour at 30° C. in the presence of compound. After one hour the reaction mix was aspirated from the plate and the plate was washed with PBS containing 100 mM EDTA. The plate was read on a scintillation counter to determine ^33P-γ-ATP incorporated into the immobilized peptide. Test compounds were assayed in duplicate at 8 concentrations [100 uM, 10 uM, 1 uM, 100 nM, 10 nM, 1 nM, 100 pM, 10 pM]. A maximum and minimum signal for the assay was determined on each plate. The IC50 was calculated from the dose response curve of the percent inhibition of the maximum signal in the assay according to the formula [max signal—background/test compound signal—background (100)=% inhibition] by graphing the percent inhibition against the log concentration of test compound. Known inhibitor compounds appropriate for the kinase being assayed were also included on each plate.
(§3) CDK2 in complex with cyclin A is commercially available (Upstate Biotech, Lake Placid, N.Y.). The CDK4 complex was composed of a mouse CDK4 protein and a mouse Cyclin D1 protein (The mouse CDK4 protein was genetically fused to an N-terminal Flag-epitope tag and the mouse Cyclin D1 protein was fused with an N-terminal AU-1 epitope tag. The genes encoding these proteins were transferred to commercially available baculoviral vectors. The recombinant CDK4/D1 complex was then made by co-infecting commercially available insect cells with viruses carrying these two constructs). […] ERK-1 protein (Discontinued from Calbiochem). EGFR (epidermal growth factor receptor) is purified from human A431 cell membranes (Sigma, St. Louis, Mo., Cat.# E3641).

[3] = molecular target: T3, HER2 (human epidermal growth factor receptor-2) (Homo sapiens, UniProt P04626); test: Kinase Selectivity Assay HER2; conditions: Table 1; read-out: HER2 IC50
T3 construct: begins at amino acid 676 followed by the remainder of the HER2 cytoplasmic domain; polyhistidine (N)
T3 sequence (P04626 676-1255 limits assumed): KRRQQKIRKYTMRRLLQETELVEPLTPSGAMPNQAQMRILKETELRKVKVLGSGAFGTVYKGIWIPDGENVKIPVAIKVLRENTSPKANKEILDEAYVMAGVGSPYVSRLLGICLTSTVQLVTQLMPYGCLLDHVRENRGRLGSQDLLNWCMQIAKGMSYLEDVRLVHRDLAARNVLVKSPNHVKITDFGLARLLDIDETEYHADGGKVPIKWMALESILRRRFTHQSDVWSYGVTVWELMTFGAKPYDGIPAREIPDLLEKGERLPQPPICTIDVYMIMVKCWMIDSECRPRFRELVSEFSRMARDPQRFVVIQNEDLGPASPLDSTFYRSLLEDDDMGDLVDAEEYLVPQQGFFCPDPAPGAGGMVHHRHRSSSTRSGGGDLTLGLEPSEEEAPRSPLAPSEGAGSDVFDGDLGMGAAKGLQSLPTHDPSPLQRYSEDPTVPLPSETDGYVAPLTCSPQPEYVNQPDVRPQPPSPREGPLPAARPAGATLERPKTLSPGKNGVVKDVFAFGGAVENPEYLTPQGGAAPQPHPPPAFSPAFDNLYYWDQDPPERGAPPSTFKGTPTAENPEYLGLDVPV
Description: as §2, §3

T1 sequence (P06493 whole entry): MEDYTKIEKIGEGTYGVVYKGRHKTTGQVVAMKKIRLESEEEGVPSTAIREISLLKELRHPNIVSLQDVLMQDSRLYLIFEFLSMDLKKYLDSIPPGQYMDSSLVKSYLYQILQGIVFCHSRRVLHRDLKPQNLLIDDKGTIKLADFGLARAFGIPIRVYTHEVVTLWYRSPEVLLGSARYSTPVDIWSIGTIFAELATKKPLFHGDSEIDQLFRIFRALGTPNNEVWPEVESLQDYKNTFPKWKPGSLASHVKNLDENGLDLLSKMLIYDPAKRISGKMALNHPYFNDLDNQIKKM
T1 sequence (P14635 whole entry partner): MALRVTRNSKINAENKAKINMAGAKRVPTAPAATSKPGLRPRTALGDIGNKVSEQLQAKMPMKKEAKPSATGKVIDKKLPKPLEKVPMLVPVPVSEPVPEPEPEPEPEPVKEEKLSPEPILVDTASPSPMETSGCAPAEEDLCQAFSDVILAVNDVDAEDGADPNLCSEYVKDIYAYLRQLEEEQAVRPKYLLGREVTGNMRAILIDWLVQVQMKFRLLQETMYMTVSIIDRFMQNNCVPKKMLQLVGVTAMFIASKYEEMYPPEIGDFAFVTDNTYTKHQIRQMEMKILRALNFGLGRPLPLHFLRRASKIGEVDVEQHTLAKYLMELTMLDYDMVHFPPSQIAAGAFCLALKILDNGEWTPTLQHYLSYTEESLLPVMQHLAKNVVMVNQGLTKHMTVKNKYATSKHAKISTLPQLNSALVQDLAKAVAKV

| Structure (SMILES) | IC50 [1] | IC50 [2] | IC50 [3] |
| --- | --- | --- | --- |
| Nc1nc(Nc2ccc(S(N)(=O)=O)cc2)nn1C(=O)c1sccc1-n1cccc1 [Cpd 50, 4-[[5-amino-1-[[3-(1H-pyrrol-1-yl)-2-thienyl]carbonyl]-1H-1,2,4-triazol-3-yl]amino]-benzenesulfonamide] | 120 nM | 190 nM | 200 nM |
| CC(C)(C)OC(=O)/C=C/c1ccc(C(=O)n2nc(Nc3ccc(S(N)(=O)=O)cc3)nc2N)s1 [Cpd 52, 3-[5-[[5-amino-3-[[4-(aminosulfonyl)phenyl]amino]-1H-1,2,4-triazol-1-yl]carbonyl]-2-thienyl]-(2E)-2-propenoic acid-1,1-dimethylethyl ester] | 35 nM | 110 nM | 1470 nM |
| Nc1nc(Nc2ccc(S(N)(=O)=O)cc2)nn1C(=O)c1ccc(C#Cc2ccccc2)s1 [Cpd 53, 4-[[5-amino-1-[[5-(phenylethynyl)-2-thienyl]carbonyl]-1H-1,2,4-triazol-3-yl]amino]-benzenesulfonamide] | > 1000 nM | > 1000 nM | > 1000 nM |
| Nc1nc(Nc2ccc(S(N)(=O)=O)cc2)nn1C(=O)c1c(F)ccc([N+](=O)[O-])c1F [Cpd 54, 4-[[5-amino-1-(2,6-difluoro-3-nitrobenzoyl)-1H-1,2,4-triazol-3-yl]amino]-benzenesulfonamide] | 550 nM | 14000 nM | 6100 nM |
| Cc1cccc(C)c1C(=O)n1nc(Nc2ccc(S(N)(=O)=O)cc2)nc1N [Cpd 56, 4-[[5-amino-1-(2,6-dimethylbenzoyl)-1H-1,2,4-triazol-3-yl]amino]-benzenesulfonamide] | 490 nM | 20000 nM | 4170 nM |
| Nc1nc(Nc2ccc(S(=O)(=O)O)cc2)nn1C(=O)c1c(F)cccc1F [Cpd 59, 4-[[5-amino-1-(2,6-difluorobenzoyl)-1H-1,2,4-triazol-3-yl]amino]-benzenesulfonic Acid] | 1540 nM | 920 nM | 7830 nM |
| Cc1ccc(F)c(C(=O)n2nc(Nc3ccc(S(=O)(=O)O)cc3)nc2N)c1F [Cpd 60, 4-[[5-amino-1-(2,6-difluoro-3-methylbenzoyl)-1H-1,2,4-triazol-3-yl]amino]-benzenesulfonic acid] | 1370 nM | 890 nM | 7460 nM |
| Cc1ccc(F)c(C(=O)n2nc(Nc3ccc(N4CCN(C)CC4)cc3)nc2N)c1F [Cpd 72, 1-(2,6-difluoro-3-methylbenzoyl)-N^3-[4-(4-methyl-1-piperazinyl)phenyl]-1H-1,2,4-triazole-3,5-diamine] | 1430 nM | 380 nM | 1490 nM |
| Cc1ccsc1C(=O)n1nc(Nc2ccc(N3CCN(C)CC3)cc2)nc1N [Cpd 73, N^3-[4-(4-methyl-1-piperazinyl)phenyl]-1-[(3-methyl-2-thienyl)carbonyl]-1H-1,2,4-triazole-3,5-diamine] | 2200 nM | 29 nM | 176 nM |
| Cc1cc(C)c(C(=O)n2nc(Nc3ccc(N4CCN(C)CC4)cc3)nc2N)s1 [Cpd 74, 1-[(3,5-dimethyl-2-thienyl)carbonyl]-N^3-[4-(4-methyl-1-piperazinyl)phenyl]-1H-1,2,4-triazole-3,5-diamine] | 460 nM | 21 nM | 62 nM |
| CCc1ccc(C(=O)n2nc(Nc3ccc(N4CCN(C)CC4)cc3)nc2N)s1 [Cpd 75, 1-[(5-ethyl-2-thienyl)carbonyl]-N^3-[4-(4-methyl-1-piperazinyl)phenyl]-1H-1,2,4-triazole-3,5-diamine] | 520 nM | 33 nM | 60 nM |
| CCc1ccc(C(=O)n2nc(Nc3ccc(S(=O)(=O)N(C)C)cc3)nc2N)s1 [Cpd 86, 4-[[5-amino-1-[(5-ethyl-2-thienyl)carbonyl]-1H-1,2,4-triazol-3-yl]amino]-N,N-dimethyl-benzenesulfonamide] | 109 nM | 86.9 nM | 413 nM |
| Cc1ccsc1C(=O)n1nc(Nc2ccc(S(=O)(=O)N(C)C)cc2)nc1N [Cpd 87, 4-[[5-amino-1-[(3-methyl-2-thienyl)carbonyl]-1H-1,2,4-triazol-3-yl]amino]-N,N-dimethyl-benzenesulfonamide] | 217 nM | 16.8 nM | 436 nM |
| Cc1ccc(F)c(C(=O)n2nc(Nc3ccc(S(=O)(=O)N(C)C)cc3)nc2N)c1F [Cpd 88, 4-[[5-amino-1-(2,6-difluoro-3-methylbenzoyl)-1H-1,2,4-triazol-3-yl]amino]-N,N-dimethyl-benzenesulfonamide] | 313 nM | 965 nM | ~1000 nM |
| CN(C)S(=O)(=O)c1ccc(Nc2nc(N)n(C(=O)c3c(F)cccc3F)n2)cc1 [Cpd 89, 4-[[5-amino-1-(2,6-difluorobenzoyl)-1H-1,2,4-triazol-3-yl]amino]-N,N-dimethyl-benzenesulfonamide] | 710 nM | 598 nM | ~10000 nM |
| CCc1ccc(C(=O)n2nc(Nc3ccc(-n4ccnc4)cc3)nc2N)s1 [Cpd 90, 1-[(5-ethyl-2-thienyl)carbonyl]-N^3-[4-(1H-imidazol-1-yl)phenyl]-1H-1,2,4-triazole-3,5-diamine] | ~1000 nM | ~100 nM | ~100 nM |
| Cc1ccsc1C(=O)n1nc(Nc2ccc(-n3ccnc3)cc2)nc1N [Cpd 91, N^3-[4-(1H-imidazol-1-yl)phenyl]-1-[(3-methyl-2-thienyl)carbonyl]-1H-1,2,4-triazole-3,5-diamine] | 335 nM | 73.6 nM | 223 nM |
| Nc1nc(Nc2ccc(-n3ccnc3)cc2)nn1C(=O)c1c(F)cccc1F [Cpd 93, 1-(2,6-difluorobenzoyl)-N^3-[4-(1H-imidazol-1-yl)phenyl]-1H-1,2,4-triazole-3,5-diamine] | 452 nM | 727 nM | ~1000 nM |
